Source: US6867186B2, “Cell-permeable protein inhibitors of calpain” (New England Medical Center Hospital, priority 1997, dated 2005)
Like-named read-outs stand apart in the source and are kept apart here.

What was measured:
gel filtered platelets = assay: Thrombin-induced platelet aggregation (aggregometer); assay type: cell-based, human; conditions: for effect on platelet aggregation: thrombin or SFLLR induced
Protocol: In one series of experiments, platelets were purified from […] on a SEPHAROSE 2B column in PIPES buffered saline containing glucose, pre-incubated with 45 μM calpastat or S-TIPPEY-ala for 30 minutes at 37° C., and placed in a cuvette in a BIODATA aggregometer. The aggregometer measures turbidity of the solution by nephlometry (light scatter). Aggregation was induced with thrombin (0.1 to 1 unit/ml) or the thrombin receptor agonist peptide SFLLR (SEQ ID NO:5). […] In contrast, S-TIPPEY-ala had no activity. A version of S-TIPPEYIN lacking the signal sequence similarly had no activity.
In another series of experiments, gel filtered platelets were obtained and tested as follows. Blood from healthy, aspirin-free volunteers was collected by venipuncture into 4% sodium citrate (9:1 v/v, final concentration 0.4%) and centrifuged at 200×g for 20 minutes to obtain platelet rich plasma (PRP). Following incubation with apyrase (4 units/ml for 5 minutes at room temperature), platelets were purified from PRP by gel-filtration at room temperature using a Sepharose 2B column equilibrated in PIPES buffer (25 mM PIPES pH 6.8, 140 mM NaCl, 4 mM KCl, and 0.1% glucose) (Hsu-Lin, et al., J. Biol. Chem. 259:9121-9126, 1984). Final gel filtered platelet concentrations were about 1.5×10^8 cells/ml.
Gel filtered platelets (250 μl aliquots at 1.6×10^8/ml) were incubated with the indicated concentration of calpastat or mutant calpastat-ala for either 20 or 30 minutes at 37° C. in the absence of calcium and stirring. To test peptidyl calpain inhibitors, platelets were preincubated with the indicated concentration of calpeptin, MDL, E64d, DMSO (vehicle control) or NH4Cl (cathepsin control) for 10 minutes at 37° C. Following incubation, platelets were recalcified (CaCl2, 2 mM) and stimulated with 0.05-1.0 unit/ml thrombin, while being stirred (1400 rpm) at 37° C. The sensitivity of platelet preparations to thrombin decreased over the course of a given experiment. The thrombin concentration used was to elicit robust aggregation and varied between 0.05 and 1.0 U/ml. Aggregation was measured using a Bio-Data lumi-aggregometer. Percent inhibition of aggregation was measured at 4 minutes following the onset of aggregation. The initial rate of aggregation during the first 15 seconds for treated vs. untreated samples was used to calculate the IC50 for each inhibitor.

calpain = assay: Ionophore-dependent calpain degradation of ABP and talin in platelets; assay type: cell-based; conditions: 5, 8, or 10 minutes A23187
Protocol: To investigate whether calpastat inhibits calpain activity in platelets, the ionophore-dependent proteolysis of actin binding protein (ABP; about 280 kDa) and talin (about 240 kDa), both of which are substrates of both μ- and m-calpains, was examined as follows.
Platelets were pre-incubated with ZLLYCHN2, DMSO (solvent for ZLLY-CHN2), calpastat, or HEPES buffer (buffer for calpastat), and then treated with or without ionophore A23187 for 5, 8, or 10 minutes. The platelets were then gel-purified as described above. Whole cell lysates were prepared and fractionated by SDS polyacrylamide gel electrophoresis.

HIV-1 = tested on: HIV-1
Protocol: (§1) U1 is a human promonocytic cell line that is chronically infected with HIV-1 and that constitutively expresses low levels of HIV-1. […] In the present experiment, 1×10^6 cells/ml were treated with various dosages of calpastat and incubated for one hour at 37° C. After incubation, various concentrations of Tpg were added to the calpastat-treated cells and aliquoted into a 24-well plate. To observe the stimulation of HIV-1 activity by Tpg, equivalent numbers of cells were treated with Tpg alone. The cells were then incubated at 37° C. for up to four days, and supernatants from the cell culture were collected each day to measure HIV-1 activity. The viability of cells treated with both Tpg and calpastat were determined each day by Trypan-blue exclusion test. The HIV-1 activity in the collected supernatants was determined by measuring the HIV-1 p24 core antigen protein by ELISA (Dupont Medical Products, Boston, Mass.) according to the manufacturer's instructions.
In another series of experiments, U1 cells, which are latently infected with HIV-1 provirus, were plated at 10^6 cells/well in 1 ml of medium and treated with varying concentrations of either calpastat (FIG. 7E) or calpeptin (benzyloxycarbonyl-leucyl-norleucinal) (FIG. 7F) for 45 minutes before addition of thapsigargin (4 nM final concentration). […] After 48 hours of stimulation, HIV-1 p24 antigen levels were determined in 200 μl of tissue culture supernatant, using a p24 ELISA (DuPont). All assays were performed on triplicate cultures.

U1 cells = assay: U1 cell viability (Trypan-blue exclusion); assay type: cell-based, human; conditions: 5 μM calpastat, 96 hr; from 40% without
Protocol: as §1
In another series of experiments, U1 cells, which are latently infected with HIV-1 provirus, were plated at 10^6 cells/well in 1 ml of medium and treated with varying concentrations of either calpastat (FIG. 7E) or calpeptin (benzyloxycarbonyl-leucyl-norleucinal) (FIG. 7F) for 45 minutes before addition of thapsigargin (4 nM final concentration). The viability of U1 monocytes was 90% at 48 hours of thapsigargin (4 nM) treatment, in the presence or absence of calpain inhibitors. After 48 hours of stimulation, HIV-1 p24 antigen levels were determined in 200 μl of tissue culture supernatant, using a p24 ELISA (DuPont). All assays were performed on triplicate cultures. Mean values and standard deviations are shown for each concentration of inhibitor (FIGS. 7E-7F).

U937 cells = assay: Chemokine production of thapsigargin-stimulated U937 cells; assay type: cell-based; conditions: 5 nM calpastat
Protocol: peptides can inhibit chemokine production in vitro. The effect of […] on chemokine production was tested as follows. […] The chemokines (MIP-1α, MIP-1P and RANTES) in the supernatants of U937 cells were assayed using QuantikineTM kits and as described by R&D Systems (Minneapolis, Minn.). […] Thus, […] be used to reduce production of inflammatory cytokines and treat inflammatory disorders.

Row | IC50 (gel filtered platelets; initial rate during first 15 seconds, NI=no inhibition, peptidyl inhibitors 10 min pre-incubation, read-out: IC50, initial rate of thrombin-induced platelet aggregation) [µM] | Substance | effect on platelet aggregation (gel filtered platelets) | effect on platelet aggregation (gel filtered platelets; listed as S-TIPPEY-ala) | concentration of maximal inhibition of platelet aggregation (gel filtered platelets; 30 minutes pre-incubation at 37° C.) [µM] | IC50 (gel filtered platelets; no unit printed, read-out: IC50 of calpastat, initial rate of thrombin-induced aggregation) [µM] | A23187-dependent calpain degradation of ABP and talin in platelets (calpain) | decrease of mean fold viral production (HIV-1; 5 μM, 24 hours of Tpg stimulation) [%] | decrease of mean fold viral production (HIV-1; 5 μM, 46 hours of Tpg stimulation) [%] | decrease of mean fold viral production (HIV-1; 5 μM, 72 hours of Tpg stimulation) [%] | decrease of mean fold viral production (HIV-1; 5 μM, 96 hours of Tpg stimulation) [%] | inhibition of HIV-1 release from infected cells (HIV-1; 5 μM, overall) | IC50 (HIV-1; read-out: IC50, inhibition of HIV-1 replication, FIG. 7E, U1 cells, thapsigargin 4 nM, 48 hours) [µM] | viability of U1 cells in 4 nM Tpg (U1 cells) [%] | reduction of production of chemokines (MIP-1α, MIP-1P and RANTES) (U937 cells)
1 | > 50 | AAVALLPAVLLALLAPEKLAERADAAAPEAAELLEKKTGV [Calpastat-ala] | no measurable effect | no activity |  |  |  |  |  |  |  |  |  |  | 
2 |  | H-AAVALLPAVLLALLAPEKLGERDDTIPPEYRELLEKKTGV-OH [Calpastat] | inhibited platelet aggregation and secretion |  | 45 | 50 | inhibited | 47 | 44 | 55 | 61 | about 50% | 0.05 | 90 | about one third
